Experimental data published in patent US8334316B2, “Substituted organosulfur compounds and methods of using thereof” (ACEA Biosciences, Inc., priority 2004, dated 2012).

How the values were obtained:
Assay type in all cases: cell-based
[1] = system: MDA-MB231 (M231, human breast cancer cell line); assay: RT-CES system cell proliferation/cytotoxicity IC50, MDA-MB231; details: MDA-MB-231, time point of maximum inhibition
Excerpt: The RT-CES system comprises three components, an electronic sensor analyzer, a device station and 16× or 96× microtiter plate devices. Microelectrode sensor array was fabricated on glass slides with lithographical microfabrication methods and the electrode-containing slides are assembled to plastic trays to form electrode-containing wells. Each 16× (or 96×) microtiter plate device used in RT-CES system comprises up to 16 (or 96) such electrode-containing wells. The device station receives the 16× or 96× microtiter plate devices and is capable of electronically switching any one of the wells to the sensor analyzer for impedance measurement. In operation, the devices with cells cultured in the wells are placed into a device station that is located inside an incubator. Electrical cables connect the device station to the sensor analyzer. Under the RT-CES software control, the sensor analyzer can automatically select wells to be measured and continuously conduct impedance measurements. The impedance data from the analyzer is transferred to a computer, analyzed and processed by the integrated software.
To quantify cell status based on the measured cell-electrode impedance, a parameter termed Cell Index is derived, according to
[formula] where Rb(f) and Rcell(f) are the frequency dependent electrode resistances (a component of impedance) without cells or with cell present, respectively. N is the number of the frequency points at which the impedance is measured. Thus, Cell Index is a quantitative measure of the status of the cells in an electrode-containing well. Under the same physiological conditions, more cells attached on to the electrodes leads to larger Rcell(f) value, leading to a larger value for Cell Index. Furthermore, for the same number of cells present in the well, a change in the cell status such as morphology will lead to a change in the Cell Index. For example, an increase in cell adhesion or cell spreading leads to larger cell-electrode contact area which will lead to an increase in Rcell(f) and thus a larger value for Cell Index. The Cell Index may also be calculated using a formula different from the one described here. Other methods for calculating the Cell Index based on impedance measurement can be found in PCT application number PCT/US04/37696, fined on Nov. 12, 2004, PCT application number PCT/US05/04481, filed on Feb. 9, 2005, U.S. patent application Ser. No. 10/987,732, filed on Nov. 12, 2004, and U.S. patent application Ser. No. 11/055,639, filed on Feb. 9, 2005.
Dibenzyl trisulfide solution in DMSO was added into wells following the incubation period. The cell status was monitored prior to and after the compound addition using RT-CES system. The cell indexes of different wells were between 0.65 and 0.82 just before the compound addition. […] The cell index was normalized against the cell index values at a time point just after compound addition (about 19.6 hrs after cell seeding).
For the assay performed on the RT-CES system, the cells were seeded into the 16× or 96× microtiter plate devices (electronic plates, i.e., the plates comprise microelectrode sensor arrays in the wells of the plate) at the seeding density ranging from 5000 cells/well to 15,000 cells/well. The cells were incubated at 5% CO2 and 37° C. for overnight till the cell indices reached the growth phase where the cell index was between 0.8 and 1.2. Serially diluted compounds were then added to the cells followed by dynamic monitoring of the effect of the compounds on the cell proliferation and cytotoxicity. The time-dependent IC50 values for each derivative were calculated based the dose responses of cell index value at different time points after compound treatment.
The anticancer potency of a DBTS derivative, ACEA100108 was tested in 7 cancer cell lines on the […]. The cell lines were HT1080, H460, OVCAR4, MCF7, MDA-MB231, HepG2, and A2780. […]

[2] = system: H460 (human non small cell lung cancer cell line); assay: RT-CES system cell proliferation/cytotoxicity, H460; details: NCI-H460, time point of maximum inhibition
Experimental: In operation, the devices with cells cultured in the wells are placed into a device station that is located inside an incubator. […] Under the RT-CES software control, the sensor analyzer can automatically select wells to be measured and continuously conduct impedance measurements. The impedance data from the analyzer is transferred to a computer, analyzed and processed by the integrated software.
H460 cells (human lung cancer cells) were seeded into wells of 16× or 96× microtiter plate devices (electronic plates, i.e., the plates comprise microelectrode sensor arrays in the wells of the plate) with an initial seeding density of 8000 cells per well and were pre-incubated in incubator under standard cell culture conditions for about 22 hrs. […] The cell status was monitored prior to and after the compound addition using RT-CES system. […] The cell index was normalized against the cell index values at a time point just after compound addition (about 23 hrs after cell seeding).

[3] = system: HT1080 (human fibrosarcoma cell line); assay: MTT assay IC50 (48 h), HT1080; details: HT-1080, HT1080, 48 hours
Experimental: (§1) In another assay format, a test compound is assayed for its cytotoxicity and/or cytostatic effect on certain cancer cell types, using endpoint assay methods. Cells in the NCI cancer cell panel may be used. Cells after a pre-incubation for certain length of time (for example, 8 hrs or 24 hrs) are incubated with a test compound at serially-diluted concentrations (for example, five 10-fold dilutions) for 24 hrs and/or 48 hrs, and/or other specific length of time. The dose dependent cytotoxicity and/or cytostatic effects of test compounds can then be tested and evaluated using the 3-(4,5-dimethylthiazol-2-yl)-2,5-diphenyltetrazolium bromide (MTT) assay method, as described by, for example, Boyd (In Principle of Practice of Oncology, Devita, J. T., Hellman, S. and Rosenberg S. A. (Eds), 1989, Vol, 3, PPO Update, No. 10).
(§2) The anticancer potency of DBTS and its derivatives were tested in 8 different types of human cancer cell lines using the RT-CES system and MTT assay. The 8 cancer cell lines were HT1080 (the human fibrosarcoma cell line), H460 (human non small cell lung cancer cell line), OVCAR4 (the human ovarian cancer cell line), MCF7 (human breast cancer cell line) MDA-MB231 (M231, the human breast cancer cell line) A2780 (the human […] cancer cell line) Jurkat (the human T cell leukemia cell line). The test DBTS derivatives include ACEA100107, ACEA100108, ACEA100109, ACEA100111, ACEA100115, ACEA100116, ACEA100117, ACEA100118, ACEA100119, and ACEA100120.
(§3) For the MTT assay, the cells were seeded into the regular 96× well plates at the cell seeding density ranging from 5000 cells/well to 15,000 cells/well. The cells were incubated at 5% CO2 and 37° C. for overnight. The derivatives were serially diluted and added to the cells. The treatment was terminated after 48 hours of incubation by adding MTT staining reagent. After 4 hours, the staining was stopped by the stop buffer and then the calorimetric measurement was carried out on a microtiter plate reader at dual wave length, 650 nm and 550 nm.

[4] = system: OVCAR4 (human ovarian cancer cell line); assay: MTT assay IC50 (48 h), OVCAR4; details: OVCAR-4, OVCAR4, 48 hours
Experimental: as §1, §2, §3

HepG2 cells = assay: MTT assay IC50 (48 h), HepG2 (eighth cell line not given); details: Homo sapiens; HepG2, 48 hours
Experimental: as §1, §2, §3

`Cc1cccc(CSSSCc2cccc(C)c2)c1` [ACEA100116, di(m-methylbenzyl)trisulfide] was tested. Which IC50 [1] did it give?
The IC50 was 1.06 µM.

And the IC50 [2]?
The IC50 was 12.5 µM.

What about the IC50 [3] of the same compound?
Its IC50 is 2.2 µM.

What about the IC50 [4] of the same compound?
Its IC50 is > 50 µM.

What about the IC50 (HepG2 cells) of the same compound?
Its IC50 is > 50 µM.

What does the source list for `FC(F)(F)c1cccc(CSSSCc2cccc(C(F)(F)F)c2)c1` [ACEA100117, Di(m-trifluoromethylbenzyl)trisulfide]?
IC50 [1]: 41 µM; IC50 [2]: > 50 µM; IC50 [3]: 47.5 µM; IC50 [4]: > 50 µM; IC50 (HepG2 cells): > 50 µM

`Fc1ccc(CSSSCc2ccc(F)cc2)cc1` [ACEA100108, Di(p-fluorobenzyl)trisulfide] was tested. Which IC50 [1] did it give?
Its IC50 is 3.05 µM.

And the IC50 [2]?
The IC50 was 9.2 µM.

And the IC50 [3]?
The IC50 was 19 µM.

What about the IC50 [4] of the same compound?
Its IC50 is > 50 µM.

And the IC50 (HepG2 cells)?
Its IC50 is > 50 µM.

What does the source list for `Clc1ccc(CSSSCc2ccc(Cl)cc2)cc1` [ACEA100118, Di(p-chlorobenzyl)trisulfide]?
IC50 [1]: 2.3 µM; IC50 [2]: 9.6 µM; IC50 [3]: 1.15 µM; IC50 [4]: > 50 µM; IC50 (HepG2 cells): > 50 µM

For `c1ccc(CSSSCc2ccccc2)cc1` [DBTS, Dibenzyl trisulfide], which IC50 [1] is on record?
The IC50 was 2.4 µM.

And the IC50 [2]?
Its IC50 is 11.1 µM.

What about the IC50 [3] of the same compound?
Its IC50 is 2.55 µM.

And the IC50 [4]?
Its IC50 is > 50 µM.

And the IC50 (HepG2 cells)?
Its IC50 is > 50 µM.

`Clc1ccccc1CSSSCc1ccccc1Cl` [ACEA100115, Di(o-chlorobenzyl)trisulfide] was tested. Which IC50 [1] did it give?
Its IC50 is 1.06 µM.

What about the IC50 [2] of the same compound?
The IC50 was 23.2 µM.

What about the IC50 [3] of the same compound?
The IC50 was 12.4 µM.

And the IC50 [4]?
The IC50 was > 50 µM.

What about the IC50 (HepG2 cells) of the same compound?
The IC50 was > 50 µM.
